System: α-glucosidase
Assay: α-glucosidase inhibitor activity
Assay type: biochemical

Activity among the alkaloids of the effective fraction: the activity is also the highest
SMILES: OCC1NCC(O)C(O)C1O (stereo not shown) [1-deoxynojirimycin]
